{"source": "patent US20090062255A1", "about": "“TUMOR-TARGETING EVALUATION METHODOLOGY AND COMPOUNDS RELATED THERETO” (THALLION PHARMACEUTICALS INC., priority 2007, published 2009)", "key": {"[1]": {"assay": "ECO-4601 concentrations in plasma and tissues, rat C6 orthotopic brain tumors", "type": "in vivo", "details": "individual rats", "experimental": "Rat C6 glioma cells were purchased from the American Type Culture Collection (Manessa, Va.) and grown in Dulbecco's modified Eagle's medium (DMEM) supplemented with 10% FBS, 125 U/mL penicillin G, 125 μg/mL streptomycin sulfate, and 2.2 μg/mL amphotericin B (Fungizone). All culture reagents were obtained from Gibco BRL (Invitrogen Burlington, ON, Canada). Cultures were grown in monolayers and maintained at 37° C. in a humidified atmosphere of 5% CO2. Upon reaching confluency, spheroids were prepared using the hanging drop method previously described by Del Duca et al. ((2004) J. Neurooncol 67, p 295). Briefly, 20 μl drops of DMEM containing 15,000 cells each were suspended from the lids of culture dishes and the resulting aggregates were transferred to culture dishes base-coated with agar after 72 hours. The resulting spheroids were adequate for in vivo implantation after 48 hours of incubation on agar.\nMale, Sprague-Dawley rats (250-300 g) (Charles River Canada, St Constant, QC) were anesthetized with 50 mg/kg ketamine and 10 mg/kg xylazine. The right cortical surface in the parietal-occipital region was exposed by craniectomy using a high-powered drill (DREMEL, USA) and the underlying dura and its vessels were carefully removed under a surgical microscope. A piece of the cortex was removed to expose the underlying white matter and a single speroid containing rat C6 tumor cells was placed into the surgical defect. The craniectomy was covered with bone wax (Ethicon, Peterborough, Canada) and the overlying skin sutured. Following recovery from anesthesia, the animals were fed and had access to water ad libitum.\nFollowing completion of in vivo studies, animals were sacrificed by anesthetic overdose and decapitated. Brain, tumor, and liver were snap-frozen in liquid nitrogen and stored frozen (−70° C.±10° C.). For blood samples, each blood sample was collected into a K2-EDTA tube and kept on wet ice for a maximum of 30 minutes. Blood samples were centrifuged under refrigeration (2 to 8° C.) for 10 minutes at 1,500 g (RCF). A volume of 25 μL of aqueous 4% w/v L-ascorbic acid was added to a volume of 225 μL of rat plasma in a clean tube, and the samples were thoroughly mixed by inversion. A volume of 125 uL of the resulting mixture was transferred to a separate tube for bioanalysis, while the remaining mixture was maintained as a backup, and both the bioanalysis and back-up portions were frozen on dry ice and stored frozen (−70° C.±10° C.).\nRat plasma (50 μL) was mixed with 500 μL of acetone containing 100 ng/mL of the internal standard (Compound 2). The mixture was vortexed for 20 seconds, incubated 10 min at RT and centrifuged at 12,000×g for 10 minutes. The supernatants were transferred into HPLC injection vials and 20 μL were analyzed by tandem liquid chromatography/mass spectrometry. The chromatography was achieved on a Luna C18 column (30×4.6 mm, 5 μm particles; Phenomenex, Torrance, Calif.) with a mobile phase consisting of 100% methanol: 0.5% formic acid in water (85:15) at a flow rate of 1 mL/min. Flow was split 1:10 prior to introduction into the ESI source. The nebulization was assisted by and octagonal jet stream of nitrogen heated at […] and set at a flow of 4 L/min. The ion source voltage (ISV) was at 4000 V in positive mode, declustering potential (OR-QO) was set to 20 V, and the collision energy (Elab) was set to 25 V. The mass transition monitered for ECO-4601 and the internal standard were m/z 463→271 and 477→273, respectively. […]"}, "Raf-1": {"tested_on": "Raf-1", "assay": "Raf-1 protein levels in MiaPaCa-2 tumors (Western blot)", "type": "in vivo, mice", "details": "20 mg/kg SC daily for 5 days", "experimental": "In this model, it was verified if there was an association between antitumor activity and inhibition of the Ras-MAPK pathway. In parallel to the antitumor study described above, two additional groups of 5 mice were treated SC with vehicle or 20 mg/kg ECO-4601, administered daily for 5 days. Animals from these two groups were sacrificed two hours on day 5 of treatment. As shown by quantification of Western blot analysis (FIG. 13), Raf-1 levels were reduced in MiaPaCa-2 tumors obtained from animals treated with ECO-4601 compared with the vehicle-treated animals."}, "[2]": {"tested_on": "human breast cell line MCF-7", "assay": "Growth inhibitory MTT assay, MCF-7", "type": "cell-based", "details": "72 hours, treated over control", "experimental": "Growth inhibitory activity of ECO-4601 (Compound 1) and other dibenzodiazepinone analogs was evaluated on a panel of 4 human tumor cell lines: the human uterine sarcoma MES-SA and its doxorubicin-resistant P-glycoprotein over-expressing variant, MES-SA/DX5 as well as non-aggressive and highly aggressive human breast cell lines, MCF-7 and MDA-MB-231, respectively. These four cell lines were obtained from the American Type Culture Collection (Manassas, Va.) and cultured in RPMI plus 10% fetal bovine serum (FBS) and maintained at 37° C. with 5% CO2.\nExponentially growing cells (5,000 cells per well time; cell number determined with a hemocytometer) were seeded in 96-well flat-bottom plates and allowed to grow overnight. Cells were then incubated for 72 hours with three different concentrations of ECO-4601 or analogs: 30,10, and 3 μM. The in vitro growth inhibitory activity was determined by a commercial MTT assay. All measurements were done in quadruplicate and each experiment was performed 2-3 times. The lower the value, the more cytotoxic is the compound."}, "[3]": {"tested_on": "genes involved in steroid biosynthesis, cholesterol transport/metabolism, signal transduction and apoptosis", "assay": "Gene expression in animals treated with Compound 1", "details": "in vivo"}}, "note": "Several values for one entry are separate records, joined by “and”; a condition that tells them apart may be missing. Identical values can stand only once.", "data": [{"smiles": "CC(C)=CCC/C(C)=C/CC/C(C)=C/CN1C(=O)c2cccc(O)c2Nc2c(O)cc(O)cc21", "note": "[Compound 1, 10-farnesyl-4,6,8-trihydroxy-5,10-dihydrodibenzo[b,e][1,4]diazepin-11-one]", "values": [{"measurement": "Ratio Tumor/Brain", "setting": "[1]", "result": "10.1 and 2.1 and 5.2 and 11.30 and 3.5"}, {"measurement": "Tumor", "setting": "[1]", "result": "2701 ng/g and 239 ng/g and 509 ng/g and 2891 ng/g and 1145 ng/g"}, {"measurement": "Brain", "setting": "[1]; C6 orthotopic brain tumor", "result": "249 ng/g and 115 ng/g and 98 ng/g and 254 ng/g and 327 ng/g"}, {"measurement": "Liver", "setting": "[1]; C6 orthotopic brain tumor", "result": "994 ng/g and 164 ng/g and 1083 ng/g and 2767 ng/g and 123 ng/g"}, {"measurement": "Pasma ng/mL", "setting": "[1]; C6 orthotopic brain tumor", "result": "13,088 ng/mL and 2,657 ng/mL and 5,727 ng/mL and 10,212 ng/mL and 1,177 ng/mL"}, {"measurement": "Raf-1 levels in MiaPaCa-2 tumors versus vehicle-treated animals", "setting": "Raf-1", "result": "reduced"}, {"measurement": "% T/C at 10 μM", "setting": "[2]", "result": 44, "unit": "%"}, {"measurement": "expression of several genes in treated animals", "setting": "[3]", "result": "increased expression"}]}]}
